Active and inactive are the calls of the source. The rule behind the calls is not given here.
Columns and labels:
[1] = target: T1, NAD(P)H dehydrogenase [quinone] 1 (Homo sapiens, UniProt P15559)
Description: Inhibition of human recombinant NQO1 in presence of BSA

[2] = target: T1, NAD(P)H dehydrogenase [quinone] 1; remark: listed apart in the source
Description: Inhibition of human recombinant NQO1

MIA PaCa-2 [3] = assay: Effect on respiration rate in human MIA PaCa2 cells assessed as oxygen consumption per 10^6 cells at 100 uM; assay type: functional
MIA PaCa-2 [4] = assay: Induction of superoxide formation in human MIA PaCa2 cells; assay type: functional, cell-based
MIA PaCa-2 [5] = assay: Growth inhibition of human MIA PaCa2 cells; assay type: functional, cell-based
MIA PaCa-2 [6] = assay: Cytotoxicity against human MIA PaCa2 cells by MTT assay; assay type: functional, cell-based

T1 sequence (P15559 whole entry): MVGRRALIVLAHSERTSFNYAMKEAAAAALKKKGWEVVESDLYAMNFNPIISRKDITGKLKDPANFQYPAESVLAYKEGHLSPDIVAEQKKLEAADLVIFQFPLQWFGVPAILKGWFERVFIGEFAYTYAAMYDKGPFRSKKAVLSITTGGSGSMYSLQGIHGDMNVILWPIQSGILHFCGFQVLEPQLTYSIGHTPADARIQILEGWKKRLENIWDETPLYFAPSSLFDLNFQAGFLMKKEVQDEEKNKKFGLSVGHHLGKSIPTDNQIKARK

Compound `O=c1c(C(c2cccs2)c2c(O)oc3ccccc3c2=O)c(O)oc2ccccc12` has an IC50 [1] of 10 µM and an IC50 [2] of 0.55 µM.

Work on `O=c1c(C(c2cnc3ccccc3c2)c2c(O)oc3ccccc3c2=O)c(O)oc2ccccc12` yielded an IC50 [1] of 18 µM and an IC50 [2] of 0.38 µM.

`O=c1c(C(c2ccco2)c2c(O)oc3ccccc3c2=O)c(O)oc2ccccc12` showed an IC50 [1] of 5.9 µM and an IC50 [2] of 1.3 µM.

`COc1cc(C(c2c(O)c3ccccc3oc2=O)c2c(O)c3ccccc3oc2=O)ccc1O` was tested, and the IC50 [1] was 10 µM and the IC50 [2] was 0.65 µM.

`O=c1oc2ccccc2c(O)c1Cc1c(O)c2ccccc2oc1=O` [DICUMAROL] was tested, and the Activity (MIA PaCa-2 [3]) was 7 nmol/min, the Activity (MIA PaCa-2 [4]) was “Active” and the Activity (MIA PaCa-2 [5]) was “Dose-dependent effect”. For the same compound, the IC50 (MIA PaCa-2 [6]) was 75 µM.

`O=c1oc2ccccc2c(O)c1C1c2ccccc2Oc2c1c(=O)oc1ccccc21` (stereo unspecified) was tested, and the Activity (MIA PaCa-2 [3]) was 2.5 nmol/min, the Activity (MIA PaCa-2 [5]) was “Dose-dependent effect” and the IC50 (MIA PaCa-2 [6]) was 150 µM.

In the case of `O=c1c(Cc2c(O)oc3cc(O)ccc3c2=O)c(O)oc2cc(O)ccc12`, the Activity (MIA PaCa-2 [3]) is reported as 2.6 nmol/min, the IC50 [1] is reported as 0.35 µM and the Activity (MIA PaCa-2 [5]) is reported as “Dose-dependent effect”. For the same compound, the IC50 (MIA PaCa-2 [6]) was 190 µM and the IC50 [2] was 0.005 µM.

With `COc1ccc(C(c2c(O)c3ccccc3oc2=O)c2c(O)c3ccccc3oc2=O)cc1` the IC50 [1] was 8.7 µM and the IC50 [2] was 0.22 µM.

`O=C1OC2C=CC=CC2=C2Oc3c(c(=O)oc4ccccc34)C(c3c(O)c4ccccc4oc3=O)C12` (stereo unspecified) was tested, and the Activity (MIA PaCa-2 [3]) was 2.5 nmol/min, the IC50 [1] was 0.6 µM and the Activity (MIA PaCa-2 [5]) was “Dose-dependent effect”. The IC50 (MIA PaCa-2 [6]) was 140 µM and the IC50 [2] was 0.25 µM.

For `O=c1c(C(c2ccc3ccccc3c2)c2c(O)oc3ccccc3c2=O)c(O)oc2ccccc12`, the IC50 [1] was 8.5 µM and the IC50 [2] was 0.14 µM.

In the case of `Nc1cc(=O)oc2ccccc12`, the IC50 [1] is reported as 13 µM and the IC50 [2] is reported as 3.25 µM.
